We go through one compound from patent US10022382B2, “RNA polymerase I inhibitors and uses thereof” (Tel HaShomer Medical Research Infrastructure and Services …, priority 2013, dated 2018).

In one data set the test system is splenocytes. The data set is described as follows: Viability, proliferation and apoptosis of MOG 35-55 incubated splenocytes from immunized mice (XTT, BrdU, flow cytometry). Format: cell-based. To be noted: splenocytes 14 days post immunization, 72 h MOG 35-55, vs vehicle. As for the experimental part:
In addition, viability, proliferation and apoptosis of splenocytes isolated from mice 14 days post immunization and incubated for 72 h with MOG 35-55 were assessed by XTT, BrdU and flow cytometry (Annexin V and propidium iodide double staining) assays, respectively.

The next data set concerns Mouse splenocytes. The data set is described as follows: XTT cell viability assay, PHA-stimulated splenocytes. Format: cell-based. As to conditions: 72 hours. As for the experimental part: Cell viability was assessed by the 2,3 bis [2-Methoxy-4-nitro-5-sulfophenyl]-2H-tetrazolium-5-carboxanilide (XTT) assay (Biological Industries, Kibbutz Beit Hemeek, Israel), which measures the reduction of a tetrazolium component (XTT) into soluble formazan product by the mitochondria of viable cells. The intensity of the dye obtained is proportional to the number of metabolic active cells. On the day of measurement, cells were washed and XTT was added according to the manufacturer's instructions. Plates were incubated at 37° C. for 2-5 hours. The absorbance was read at 450 nm.
Mouse splenocytes were removed and spleenocytes were plated (250,000 cell/well) in DMEM+10% FCS+P/S+Q and […] Phytohaemaglutinin (PHA), in the presence of elevated concentrations (25-400 nM) of RAM-0 (Compound 1), RAM-1 (Compound 4), RAM-2 (Compound 2) or RAM-3 (Compound 3) for 72 hours. Cells cultured without PHA served as control. Control mice at zero are mice splenocytes with PHA stimulation.
Following incubation, cell viability was determined by XTT assay, as described above.

The test system of the next data set is naive mice. The data set is described as follows: Single dose oral toxicity in naive mice. Format: in vivo. As to conditions: single oral dose 3 mg/kg to 500.0 mg/kg, 24 h. On the procedure:
The toxicity of oral administration of a single dose of Compound 10 was tested in naïve mice using range from 3 mg/kg to 500.0 mg/kg.

Data set [1] has as its system MOG35-55 EAE in C57BL/6J mice. The data set is described as follows: MOG35-55 EAE prevention (immunization) model. As to conditions: for minimal effective dose: oral. Format: in vivo. On the procedure:
Mice: Eight-weeks-old female C57BL/6J mice (15-20 g, Harlan laboratories, Rehovot, Israel) were used in all experiments. Animal maintenance and experimental protocols were performed in accordance with the Israeli Council for Animal Care guidelines and approved by Sheba IRB Animal Care Committee. Mice were kept in an SPF environment, maintained on a 12-h light/dark cycle at a constant environmental temperature with free access to food and water in their home cages.
Induction of MOG35-55 EAE (Prevention Model): EAE (Experimental Autoimmune Encephalomyelitis) was induced in 8 week old female C57BL/6J mice (15-20 g, Harlan laboratories, Rehovot, Israel) by immunization with an emulsion containing 300 μg of purified myelin oligodendrocyte glycoprotein (MOG) peptide ([…], corresponding to residues 35-55; obtained from (Difco, Detroit, Mich.) in saline and an equal volume of complete Freund's adjuvant containing 5 mg H37RA (Difco, Detroit, Mich.). 0.2 ml of the inoculum was injected subcutaneously. In addition, 300 ng of Bordetella pertusis toxin (Sigma) in 0.2 ml saline was injected intraperitoneally at the day of induction and two days later.
Oral gavages with the tested compound, at various concentrations ranging from 3 mg/kg-30 mg/kg in PBS or 50 mM NaH2PO4 (PH 4.5), or with vehicle only, were initiated at day of immunization. Mice were monitored daily for clinical signs of EAE, scored as: 1, flaccid tail; 2, forelimb weakness and poor righting ability; 3, hind limb paralysis; 4, quadriplegia; 5, moribund. Animal reaching a score of 4 were scarified using CO2.
Treatment was stopped once 30% of the vehicle-treated animals scored 1 on the EAE score. […]
The therapeutic index (LD50/ED50), which is also referred to herein as Safety Margin (SM), was then determined based on the EAE model. ED50 is the minimum effective dose observed for 50% of the tested animals.

A further data set deals with pre-rRNA. The data set is described as follows: Q-RT-PCR of pre-rRNA in PHA-stimulated splenocytes of naive mice. Format: cell-based. As to conditions: 72 hours, 25 to 400 nM. On the procedure:
RNA samples from similar cultures were also prepared and tested by Q-RT-PCR for pre-rRNA expression levels as described in Example herein below.
RNA Extraction: For in vivo experiments spleens from EAE mice were isolated at day 17 post immunization and splenocytes were re-stimulated for 72 h hours in the presence of 5.0 μg/ml MOG35-55. For in-vitro experiments spleens from intact mice were isolated and splenocytes were stimulated with for 72 h in the presence of PHA. RNA was extracted from splenocytes of both the in-vitro and in-vivo experiments by robotic ABI PRISM, Applied biosystem 6100 Nucleic Acid Prep Station. To avoid genomic DNA contamination samples were treated with DNase I (Roche). The quality and integrity of the total RNA preparation was confirmed using a NanoDrop 2000c Spectrophotometer (Thermo Scientific).
Quantitative RT-PCR of Pre-rRNA: Complementary DNA was obtained from the extracted RNA by the High capacity cDNA reverse transcription kit (Applied Biosystems, CA, USA) following manufacturer's instructions. To confirm the role of POL1 pathway suppression by POL1-Inhibitors, the expression level of pre-rRNA transcript, a key gene of the RNA polymerase I pathway, was evaluated by Q-RT-PCR (n=3 per group). […] (SEQ ID NO: 70) with a quantification probe (Roche, Probe ID #1, cat. no. 04684974001). […]

What is called IC50 is the concentration at which inhibition is half-maximal. For orientation: ED50 means the midpoint of the dose-response relation. A low value points to greater potency. The minimal effective dose is the smallest amount tested that counted as effective. A low value points to greater potency. For the compound `Cc1cnc(CNC(=O)c2/c(=N/c3ccccc3)c3ccc(N4CCCN(C)CC4)nc3n3c2sc2ccccc23)cn1` [Compound 10, (E)-2-(4-methyl-1,4-diazepan-1-yl)-N-((5-methylpyrazin-2-yl)methyl)-5-(phenylimino)-5H-benzo[4,5]thiazolo[3,2-a][1,8]naphthyridine-6-carboxamide], in the data set on splenocytes, the “apoptosis (Annexin V and propidium iodide)” value is “induced apoptosis in CD4+ lymphocytes”; the “cell proliferation (BrdU)” value was “suppressed cell proliferation”; the “viability (XTT)” value is listed as “reduced viability”. For the same compound, the “suppression of splenocyte proliferation compared to Compound 1 (XTT)” value in the data set with Mouse splenocytes is recorded as “improved performance”. Besides, the midpoint of inhibition in the data set with Mouse splenocytes (Splenocyte, mouse splenocytes, 25-400 nM), the IC50, lay at 40 nM. In the data set on naive mice, the behavioral changes entry was “No behavioral changes” and the survival entry was “No effect on survival”. In data set [1] (3 mg/kg, alternate days), this compound returned a disease incidence of 98%. For the same compound, in data set [1] (12.0 mg/kg oral, alternate days), the “delay of disease development” value was found to be 10 days. For the same compound, the EAE severity entry in data set [1] (12.0 mg/kg oral, alternate days, 23 day post immunization) is listed as “suppressed EAE severity”. Moreover, in data set [1] (12.5 mg/Kg oral, 15 mice), the “EAE onset (dpi)” value turned out to be 19.2 ± 0.6 dpi, the Max clinical score turned out to be 1.2 ± 0.4 and the “Peak of EAE (dpi)” value worked out at 20.4 ± 0.7 dpi. In addition, the Cumulative disease score in data set [1] (12.5 mg/Kg oral, sum of scores day 0 to day 31) was 7.2 ± 1.9. Moreover, in data set [1] (12.5 mg/Kg, 15 mice per group), the “additional days free of disease compared to vehicle” value is on record as 10 days and the “delay of peak of disease compared to vehicle” value is given as 6 days. Besides, in data set [1] (12.5 mg/kg daily), the EAE inhibition result is recorded as “complete inhibition of EAE”. Also, the disease incidence in data set [1] (12.5 mg/kg, alternate days) is listed as 22%. Moreover, the disease development result in data set [1] (30 mg/kg, alternate days) is “completely inhibited disease development”. Besides, the ED50 in data set [1] (Mus musculus) is 3 mg/kg. In data set [1] (alternate days), the minimal effective dose is 6 mg/kg. The compound further gave a minimal effective dose in data set [1] (daily administration) of 3.0 mg/kg. Also, in the data set on pre-rRNA, the “pre-rRNA mRNA levels expressed by splenocytes” value is recorded as “significant dose dependent decrease”.
